Reference: PMC8391104, “Molecular mechanism of Mad1 kinetochore targeting by phosphorylated Bub1” (EMBO Reports, 2021)
Like-named read-outs stand apart in the source and are kept apart here. Where a SMILES comes first, the peptide text is derived from it. [ ]: non-standard residue; d: D form. pT = C[C@@H](OP(=O)(O)O)[C@H](N)C(=O)O

Key:
[1] = Peptide solubility; format: physicochemical; details: 20 mM Hepes, pH 7.5, 100 mM NaCl, 1 mM TCEP, without DMSO
Procedure: Our ITC and sedimentation equilibrium experiments to measure the stoichiometry of the Mad1^CTD‐Bub1^CD1 interaction were performed with concentrations of Mad1 at 100 µM or lower, and titrating Bub1 until a twofold‐fourfold molar excess was obtained. However, our ^31P NMR experiments were conducted with around 0.25 to 0.5 mM of each, and still only one binding event was detected. […] DMSO interfered with ITC enthalpy changes and the NMR signal from DMSO obscured the protein peaks. In contrast, our Mad1^CTD‐Bub1^CD1 crystal structure was obtained through co‐crystallization of Mad1^CTD at a final concentration of 0.35 mM and Bub1^CD1 at 2.5 mM in 5% DMSO. The use of millimolar concentrations of peptide, and the presence of DMSO and isopropanol, required for Mad1^CTD‐Bub1^CD1 crystallization, may explain the association of a second peptide in the crystallized complex. […]
which are affected are already mapped out in Fig 5B, and this can be tracked across Bub1CD1 […]
We thank the reviewer for their positive and constructive comments.
1) On page 2, the first line of the third paragraph, Msp1 should be Mps1.
Response: Thank you, we have corrected this error.
2) Please provide a figure to show the omit map (2Fo−Fc map) for the BUB1 CD1 peptide.
Response: We have created a 2Fo-Fc omit map and included it in Fig EV2D and updated the figure legend accordingly. […]
2) p. 5, near bottom. The authors state that the singly phosphorylated Bub1 peptide (on Thr-461) is less soluble than the double phosphorylated peptide (also phosphorylated on Ser-459), which may explain previous reports that P-Ser-459 contributes to binding Mad1-CTD. It would be helpful if the authors could quantify this reduced solubility.
Response: We realise that our comment on the reduced solubility of the singly phosphorylated pT461 peptide is likely confusing, so we have removed this comment.
In terms of quantifying the reduced solubility, we observed an approximately 2-fold reduction of the solubility of the singly phosphorylated peptide. […]

[2] = system: Mad1^CTD; details: ref Ji et al, 2017b, Zhang et al, cited from earlier work
Description: Formation of the Bub1‐Mad1 complex at kinetochores is dependent on phosphorylation of Bub1, a targeting mechanism conserved from yeast to humans (Heinrich et al, [2014]; London & Biggins, [2014a]; Silió et al, [2015]). In S. cerevisiae, phosphorylation of Bub1 at Thr453 and Thr455 by Mps1 promotes an interaction with Mad1^CTD, with pThr455 alone being sufficient for this interaction (London & Biggins, [2014a]; Ji et al, [2017b]). […] This is explained by our structure because a bulky phosphate at Thr464 would clash with the Bub1^CD1 binding interface of Mad1. Therefore, phosphorylation at Thr464 could provide a means to negatively regulate the Bub1‐Mad1 interaction in response to checkpoint signals ... || (+ 1 further places)

[3] = target: T1, human Mad1^CTD (WT) homodimer (Homo sapiens, UniProt Q9Y6D9); test: ITC of Bub1^CD1 peptides binding to wild-type Mad1^CTD; details: N‐terminal tryptophan peptide
T1 construct: human Mad1^CTD homodimer (residues 597–718); double Strep His6-tag with TEV site (N, cleaved yes); made in house; host or cells: E. coli Rosetta 2 (DE3)
T1 sequence (Q9Y6D9 597-718): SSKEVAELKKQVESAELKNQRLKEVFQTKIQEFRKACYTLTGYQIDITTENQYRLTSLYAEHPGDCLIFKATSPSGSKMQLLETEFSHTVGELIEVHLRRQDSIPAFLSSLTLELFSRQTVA
Description: The coding region of Mad1^597–719 was cloned by USER® (NEB) into a modified pRSFDuet‐1 vector (71341‐3, Sigma‐Aldrich) with an N‐terminal double Strep His6‐tag, followed by a tobacco etch virus (TEV) protease cleavage site (Demple & Linn, [1982]; Bitinaite et al, [1992]). Mad1 mutants were generated using the QuikChange™ Lightning Site‐Directed Mutagenesis Kit (Agilent), developed by Stratagene Inc. (La Jolla, CA) (Nøhr & Kristiansen, [2003]). Mad1 constructs were transformed into Rosetta™ 2 (DE3) Singles™ Competent Cells (71400, Novagen) for expression. Expression was induced with 0.5 mM IPTG and grown overnight at 18°C. Cells were lysed in 25 mM HEPES pH 8.1, 250 mM NaCl, 2 mM DTT, 5% glycerol, 2 mM EDTA supplemented with lysozyme, and Complete™ EDTA‐free protease inhibitors (Roche). Proteins were purified over a Strep‐Tactin Superflow Plus column (QIAGEN) and cleaved with TEV protease overnight at 4°C. The cleaved Mad1^CTD was then diluted to 50 mM NaCl, purified over an anion exchange (Resource Q, GE Healthcare) column, followed by size exclusion chromatography using a Superdex 75 Increase column (GE Healthcare). Mad1^CTD was concentrated to 35 mg/ml in a buffer of 20 mM HEPES pH 7.5, 100 mM NaCl and 1 mM TCEP.
Bub1^CD1 peptides were ordered from Designer Bioscience UK, at 95% purity. The full peptide sequence used in this study was (W)KVQP{pS}P{pT}VHTKEALGFIMNMFQAPTS. (W) = peptide with an additional N‐terminal tryptophan was used to confirm peptide concentration in stoichiometry studies.
Isothermal titration calorimetry (ITC) was performed using an Auto‐iTC200 instrument (Malvern Instruments, Malvern, UK) at 20°C. Mad1^CTD and Bub1^CD1 peptide mutants were dialysed into 20 mM HEPES pH 7.5, 100 mM NaCl, 1 mM TCEP. For each titration between 30–100 µM of Mad1 was pipetted into the calorimeter cell. The Bub1^CD1 peptides at 0.3–1.5 mM were titrated into the cell consisting of one 0.5 µl injection followed by 19 injections of 2 µl each. The changes in the heat released were integrated over the entire titration and fitted to a single‐site binding model using the MicroCal PEAQ‐ITC Analysis Software 1.0.0.1258 (Malvern Instruments). Titrations were performed in triplicate. Calculations for stoichiometry were based on the molar concentrations of dimeric Mad1^CTD.

[4] = system: Mad1CTD; test: Mad1-Cdc20 interaction; format: binding
Description: Response: Thank you for pointing out this paper. We have now mentioned this observation in the text: bottom of page 10.
2-1) Have the authors analyzed if Mad1 can bind directly to Cdc20 and is this influenced by Bub1 CD1 as proposed in Ji et al 2017? This would have important implications for understanding SAC signaling also in light of the two recent Science papers on this topic.
Response: We have not carefully analysed the Mad1-Cdc20 interaction. We have replicated […]
blotting) to Mad1CTD (data not shown).
2-2) The authors are focused on the model that Bub1 positions Cdc20 close to Mad1 but this model is not consistently supported by the literature (see for example: Di Fiore Dev Cell 2016 where a Cdc20 mutant unable to bind ABBA motifs still loads Mad2 and Zhang et al 2019, PMID: 30782962 where Bub1 without an ABBA motif still supports a robust […]
Response: Thank you for pointing this out. We agree that we predominately focused on the model that the Bub1 ABBA/KEN motifs position Cdc20 close to Mad1, and that we should have stated more clearly that this model is still debated.
Two changes to the text were made:
1) In the Introduction (page 2) where we had previously already discussed how this model is debated, we added the (Zhang et al, 2019) reference. […]
4) In figure 5A could the authors indicates the peaks they want the readers to focus on that are also discussed in the text. […]

CC[C@H](C)[C@H](NC(=O)[C@H](Cc1ccccc1)NC(=O)CNC(=O)[C@H](CC(C)C)NC(=O)[C@H](C)NC(=O)[C@H](CCC(=O)O)NC(=O)[C@H](CCCCN)NC(=O)[C@@H](NC(=O)[C@H](Cc1c[nH]cn1)NC(=O)[C@@H](NC(=O)[C@@H](NC(=O)[C@@H]1CCCN1C(=O)[C@H](CO)NC(=O)[C@@H]1CCCN1C(=O)[C@H](CCC(N)=O)NC(=O)[C@@H](NC(=O)[C@@H](N)CCCCN)C(C)C)[C@@H](C)OP(=O)(O)O)C(C)C)[C@@H](C)O)C(=O)N[C@@H](CCSC)C(=O)N[C@@H](CC(N)=O)C(=O)N[C@@H](CCSC)C(=O)N[C@@H](Cc1ccccc1)C(=O)N[C@@H](CCC(N)=O)C(=O)N[C@@H](C)C(=O)N1CCC[C@H]1C(=O)N[C@H](C(=O)N[C@@H](CO)C(=O)O)[C@@H](C)O [SpT* CD1] (H-KVQPSP[pT]VHTKEALGFIMNMFQAPTS-OH; N-terminus and C-terminus assumed)
reduction of solubility versus doubly phosphorylated peptide [1]: approximately 2 fold | solubility [1]: about 0.7 mM | Mad1 binding reported previously, in words ([2]; listed as pThr461): sufficient to promote a strong Bub1‐Mad1 interaction | Mad1 binding reported previously, in words ([2]; listed as singly phosphorylated pThr461 peptide): significant reduction in binding

(W)KVQP{pS}P{pT}VHTKEALGFIMNMFQAPTS [peptide with an additional N‐terminal tryptophan was used to confirm peptide concentration in stoichiometry studies]
KD and stoichiometry compared with peptide lacking N-terminal Trp [3]: The same KD and stoichiometry

phosphorylated Bub1-Bub3: phosphorylated Bub1-Bub3 complex
effect on the Mad1-Cdc20 interaction, in words [4]: does not detectably enhance the Mad1-Cdc20 interaction
